Results reported in patent US20130072519A1, “2-PHENYL BENZOYLAMIDES” (priority 2010, published 2013).

Legend:
[1] = Human liver microsomal stability; assay type: in vitro ADME; conditions: Human Liver Microsomes 0.76 mg/mL, 1 μM compound, 37° C.
Experimental: (§1) Pooled human liver or intestinal microsomes (final concentration 0.76 mg/mL) were diluted in 100 mM potassium phosphate buffer (pH 7.4) and preincubated at 37° C. The compounds of interest were dissolved in DMSO (30 mM), diluted to 100 μM in acetonitrile or methanol, and added to the microsomal incubations to achieve a final concentration of 1 μM with 1% or less final organic solvent. The mixtures were incubated for 30 min at 37° C. Aliquots were removed at predetermined times and quenched with an excess acetonitrile, containing an internal standard, on ice. Following centrifugation, the analytes were quantified by liquid chromatography-tandem mass spectrometry (LC-MS/MS). The compound remaining (%) was calculated from the analyte area ratio at the predetermined time/initial analyte area ratio at time 0×100.

[2] = Human intestinal microsomal stability; assay type: in vitro ADME; conditions: Human Intestinal Microsomes 0.76 mg/mL, 1 μM compound, 37° C.
Experimental: as §1

[3] = tested on: Apolipoprotein B Secretion from HepG2 Cells; assay: Inhibition of Apolipoprotein B secretion from HepG2 cells (ELISA); assay type: cell-based, human; conditions: Homo sapiens, HepG2, HepG2 cells, 22-24 hours incubation, ApoB ELISA; Low/High IC50 columns give the 95% confidence interval

SMILES: CCOC(=O)[C@]1(COC(=O)Cc2ccc(NC(=O)c3ccc(C)cc3-c3ccc(OC(C)C)cc3)c(C(=O)N(C)C)c2)c2ccccc2C(=O)N1C [Example 72, ethyl (1R)-1-({2-[3-(dimethylcarbamoyl)-4-{[(4′-isopropoxy-5-methylbiphenyl-2-yl)carbonyl]amino}phenyl]acetoxy}methyl)-2-methyl-3-oxoisoindoline-1-carboxylate]
- Compound remaining (%) at 4 min ([1]; pH 7.4, 4 min): 71%
- Compound remaining (%) at 30 min ([1]; pH 7.4, 30 min): 9.2%
- Compound remaining (%) at 4 min ([2]; pH 7.4, 4 min): 125%
- Compound remaining (%) at 30 min ([2]; pH 7.4, 30 min): 100%
- IC50 [3]: 0.119 nM
